Results: ChEMBL document CHEMBL5316338, “Discovery of Novel PTP1B Inhibitors with Once-Weekly Therapeutic Potential for Type 2 Diabetes: Design, Synthesis, and In Vitro and In Vivo Investigations of BimBH3 Peptide Analogues” (J Med Chem, 2023)
Calls of active or inactive are those of the source. No cut-off for these calls is given here. Square brackets hold non-standard residues; d marks the D form. Peptide text beside a SMILES is read from it. * marks the point of attachment. ξ: configuration not given here. C18 diacid = O=C(O)CCCCCCCCCCCCCCCCC(=O)*; Myristoyl = CCCCCCCCCCCCCC(=O)*; ξR = N=C(N)NCCCC(N)C(=O)O

Legend:
[1] = biological target: T1, Tyrosine-protein phosphatase non-receptor type 1 (Homo sapiens, UniProt P18031); experiment: Inhibition of N-terminal His tagged recombinant human PTP1B expressed in Escherichia coli using pNPP as substrate assessed as substrate hydrolysis
T1 sequence (P18031 whole entry): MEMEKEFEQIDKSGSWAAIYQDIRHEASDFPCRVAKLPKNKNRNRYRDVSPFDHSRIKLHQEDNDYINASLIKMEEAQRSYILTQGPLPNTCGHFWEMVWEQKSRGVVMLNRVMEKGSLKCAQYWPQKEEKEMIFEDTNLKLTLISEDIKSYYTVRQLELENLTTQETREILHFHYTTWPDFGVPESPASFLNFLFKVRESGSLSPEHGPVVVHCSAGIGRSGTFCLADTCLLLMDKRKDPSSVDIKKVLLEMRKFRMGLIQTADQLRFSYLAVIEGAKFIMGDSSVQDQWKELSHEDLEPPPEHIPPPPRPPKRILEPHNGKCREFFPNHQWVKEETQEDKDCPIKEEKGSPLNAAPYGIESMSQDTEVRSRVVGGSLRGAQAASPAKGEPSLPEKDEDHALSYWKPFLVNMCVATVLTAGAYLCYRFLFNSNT

chymotrypsin [2] = biological target: chymotrypsin (Homo sapiens, UniProt P17538+P40313+Q6GPI1+Q99895); experiment: Stability of compound assessed as chymotrypsin (unknown origin) mediated compound degradation by measuring half-life by RP-HPLC analysis; type: ADME, protein assay
Mus musculus [3] = experiment: Antidiabetic activity against C57BL/Ks db/db mouse assessed as reduction in fasting blood glucose level at 1 uM/kg, sc administered once every 2 days for 2 weeks by glucometer analysis; type: functional, organism-based
Mus musculus [4] = experiment: Antidiabetic activity against C57BL/Ks db/db mouse assessed as reduction in fasting blood glucose level at 1 uM/kg, sc administered once a week for 2 weeks by glucometer analysis; type: functional, organism-based
[5] = Stability of compound assessed as Proteinase K (unknown origin) mediated compound degradation by measuring fold change of half-life by HPLC analysis relative to BimBH312-mer peptide; type: ADME
Chymotrypsin [6] = biological target: Chymotrypsin (Homo sapiens, UniProt Q99895+P17538+P40313+Q6GPI1); experiment: Stability of compound assessed as chymotrypsin (unknown origin) mediated compound degradation by measuring fold change of half-life by RP-HPLC analysis relative to BimBH312-mer peptide; type: ADME, protein assay
[7] = Toxicity in C57BL/Ks db/db mouse assessed as signs of discomfort at 1 uM/kg, sc administered for 2 weeks; type: organism-based; details: in vivo, 336 h
Mus musculus [8] = experiment: Antidiabetic activity against C57BL/Ks db/db mouse assessed as redcution in fasting blood glucose level at 1 umol/kg, sc administered once a week and measured on day 22 by glucometer analysis (reference value: 27.4 +/- 1.8 […]); type: functional; details: dose 1 µmol/kg, time 22 day
Mus musculus [9] = experiment: Antidiabetic activity against C57BL/Ks db/db mouse assessed as redcution in fasting blood glucose level at 1 umol/kg, sc administered once a week and measured on day 26 by glucometer analysis (reference value: 31.4 +/- 2.2 […]); type: functional; details: dose 1 µmol/kg, time 26 day
Mus musculus [10] = experiment: Antidiabetic activity against sc dosed C57BL/Ks db/db mouse assessed as reduction in serum insulin level at 1 umol/kg by ELISA analysis; type: functional, organism-based; details: dose 1.0 µmol/kg
Mus musculus [11] = experiment: Antidiabetic activity against sc dosed C57BL/Ks db/db mouse assessed as reduction in glucagon level at 1 umol/kg by ELISA analysis; type: functional, organism-based; details: dose 1.0 µmol/kg
Mus musculus [12] = experiment: Antidiabetic activity against C57BL/Ks db/db mouse assessed as reduction in fasting blood glucose level at 1 uM/kg, sc administered once daily and measured on day 8 by glucometer analysis; type: functional, organism-based; details: time 8.0 day
Mus musculus [13] = experiment: Antidiabetic activity against C57BL/Ks db/db mouse assessed as reduction in fasting blood glucose level at 1 uM/kg, sc administered once every 3 days for 2 weeks by glucometer analysis; type: functional, organism-based

Structure (SMILES)	IC50 [1] [nM]	half-life (chymotrypsin [2]) [h]	Activity (Mus musculus [3])	Activity (Mus musculus [4])	fold change (FC) [5]	fold change (FC) (Chymotrypsin [6])	Activity [7]	Fasting blood glucose level (Mus musculus [8]) [mmol/L]	Fasting blood glucose level (Mus musculus [9]) [mmol/L]	Activity (Mus musculus [10])	Activity (Mus musculus [11])	Activity (Mus musculus [12])	Activity (Mus musculus [13])
CCCCCCCCCCCCCC(=O)N[C@H](C(=O)N[C@@H](C)C(=O)N[C@@H](CCC(N)=O)C(=O)N[C@@H](CCC(=O)O)C(=O)N[C@@H](CC(C)C)C(=O)N[C@@H](CCCNC(=N)N)C(=O)NC(CCCNC(=N)N)C(=O)N[C@H](C(=O)NCC(=O)N[C@@H](CC(=O)O)C(=O)N[C@@H](CCC(=O)O)C(=O)N[C@@H](Cc1ccccc1)C(=O)O)[C@@H](C)CC)[C@@H](C)CC (some centres undefined) (Myristoyl-IAQELR[ξR]IGDEF-OH)	263	2.96	Active	Active	5.8	68.8	Non-Toxic	11.2	12.9	Active	Active		
CC[C@H](C)[C@H](NC(=O)CCCCCCCCCCCCCCCCC(=O)O)C(=O)N[C@@H](C)C(=O)N[C@@H](CCC(N)=O)C(=O)N[C@@H](CCC(=O)O)C(=O)N[C@@H](CC(C)C)C(=O)N[C@@H](CCCNC(=N)N)C(=O)NC(CCCNC(=N)N)C(=O)N[C@H](C(=O)NCC(=O)N[C@@H](CC(=O)O)C(=O)N[C@@H](CCC(=O)O)C(=O)N[C@@H](Cc1ccccc1)C(=O)O)[C@@H](C)CC (some centres undefined) ({C18 diacid}-IAQELR[ξR]IGDEF-OH)	385	0.2	Active	Active	2.6	4.7	Non-Toxic	9.9	22.9	Active	Active	Active	Active
